According to US20250313562A1, “Substituted tricyclic ligands for FK506-binding proteins for treatment of diseases” (Technische Universität Darmstadt, priority 2024, published 2025):

Experiments:
FKBP12 [1] = molecular target: T1, FKBP12 (Homo sapiens, UniProt P62942); test: competitive fluorescence polarization assay, FKBP12; assay type: binding
Method: (§1) Affinity determination by competitive fluorescence polarization assay. The synthesized tricyclic sulfonamides were tested for their binding affinities to human FKBPs (FKBP12 and FKBP51) by the fluorescence polarization assay (Table 1).

FKBP12 [2] = molecular target: T1, FKBP12; test: nanoBRET assay, intracellular FKBP12 occupancy in HEK293T cells; assay type: cell-based; settings: for IC50: intracellular occupancy
Method: (§2) For compounds 31 and 32 target engagement of FKBP12 and FKBP51 in the HEK293T cells was tested (Table 2).

FKBP51 [3] = molecular target: T2, FKBP51 (Homo sapiens, UniProt Q13451); test: competitive fluorescence polarization assay, FKBP51; assay type: binding
T2 sequence (Q13451 1-457): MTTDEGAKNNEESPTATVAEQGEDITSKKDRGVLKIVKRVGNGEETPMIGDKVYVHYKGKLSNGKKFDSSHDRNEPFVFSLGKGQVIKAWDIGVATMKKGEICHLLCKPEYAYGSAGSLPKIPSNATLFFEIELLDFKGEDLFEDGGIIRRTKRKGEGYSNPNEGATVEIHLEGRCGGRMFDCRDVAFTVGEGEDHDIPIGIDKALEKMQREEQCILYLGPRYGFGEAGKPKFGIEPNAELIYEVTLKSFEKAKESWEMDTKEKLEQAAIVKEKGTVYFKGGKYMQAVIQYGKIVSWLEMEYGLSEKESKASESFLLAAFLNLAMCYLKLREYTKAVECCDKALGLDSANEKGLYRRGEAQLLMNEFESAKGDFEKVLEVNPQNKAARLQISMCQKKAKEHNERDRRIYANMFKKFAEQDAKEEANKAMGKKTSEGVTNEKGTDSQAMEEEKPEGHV
Method: as §1

FKBP51 [4] = molecular target: T2, FKBP51; test: nanoBRET assay, intracellular FKBP51 occupancy in HEK293T cells; assay type: cell-based; settings: for IC50: intracellular occupancy; for displacement of the tracer for FKBP51 (potency in words): nanoBRET
Method: as §2

T1 sequence (P62942 whole entry): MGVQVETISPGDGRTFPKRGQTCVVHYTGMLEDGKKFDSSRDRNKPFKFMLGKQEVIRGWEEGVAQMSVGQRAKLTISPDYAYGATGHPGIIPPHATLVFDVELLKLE

SMILES | Ki (FKBP12 [1]) [nM] | Ki (FKBP51 [3]) [nM] | IC50 (FKBP12 [2]) [nM] | IC50 (FKBP51 [4]) [nM] | displacement of the tracer for FKBP51 (potency in words) (FKBP51 [4]) | competition with the tracer for FKBP12 (potency in words) (FKBP12 [2]; nanoBRET)
CCNC(=O)[C@@H]1CC[C@H]2[C@H](CO)C3CCCC(C(=O)N12)N3S(=O)(=O)c1cc(Cl)cc(Cl)c1 (stereo in doubt) [Compound 31] | 0.013 ± 0.004 | 0.76 ± 0.2 | 3.9 ± 0.3 | 8.5 ± 0.6 | low nanomolar potency | 
CC1CCN(C(=O)[C@@H]2CC[C@H]3[C@H](CO)C4CCCC(C(=O)N23)N4S(=O)(=O)c2cc(Cl)cc(Cl)c2)CC1 (stereo in doubt) [Compound 32] | 0.019 ± 0.007 | 0.72 ± 0.2 | 0.49 ± 0.04 | 3.3 ± 0.3 | low nanomolar potency | subnanomolar potency
C=C[C@@H]1C2CCCC(C(=O)N3[C@H](C(=O)OC)CC[C@@H]13)N2S(=O)(=O)c1cc(Cl)cc(Cl)c1 (stereo partly drawn) [Compound 20] | 1 ± 0.1 | 76 ± 10 |  |  |  | 
C=C[C@@H]1C2CCCC(C(=O)N3[C@H](C(=O)N(C)C)CC[C@@H]13)N2S(=O)(=O)c1cc(Cl)cc(Cl)c1 (stereo partly drawn) [Compound 23] | 2.3 ± 0.2 | 121 ± 8 |  |  |  | 
C=C[C@@H]1C2CCCC(C(=O)N3[C@H](C(=O)NCC)CC[C@@H]13)N2S(=O)(=O)c1cc(Cl)cc(Cl)c1 (stereo partly drawn) [Compound 24] | 0.043 ± 0.01 | 1.1 ± 0.4 |  |  |  | 
C=C[C@@H]1C2CCCC(C(=O)N3[C@H](C(=O)N4CCN(C)CC4)CC[C@@H]13)N2S(=O)(=O)c1cc(Cl)cc(Cl)c1 (stereo partly drawn) [Compound 26] | 0.16 ± 0.018 | 11 ± 0.7 |  |  |  | 
C=C[C@H]1[C@@H]2CC[C@@H](c3ccccn3)N2C(=O)C2CCC[C@@H]1N2S(=O)(=O)c1cc(Cl)cc(Cl)c1 [Compound 30] | 12 ± 1.6 | 464 ± 79 |  |  |  | 

Continued, in another order:

Ki (FKBP12 [1]) [nM] | Ki (FKBP51 [3]) [nM] | SMILES | IC50 (FKBP12 [2]) [nM] | IC50 (FKBP51 [4]) [nM] | displacement of the tracer for FKBP51 (potency in words) (FKBP51 [4]) | competition with the tracer for FKBP12 (potency in words) (FKBP12 [2]; nanoBRET)
12 ± 1.7 | 698 ± 49 | C=C[C@@H]1C2CCCC(C(=O)N3[C@H](C(=O)O)CC[C@@H]13)N2S(=O)(=O)c1cc(Cl)cc(Cl)c1 (stereo partly drawn) [Compound 3] |  |  |  | 
0.48 ± 0.08 | 18 ± 3 | C=C[C@@H]1C2CCCC(C(=O)N3[C@H](C(N)=O)CC[C@@H]13)N2S(=O)(=O)c1cc(Cl)cc(Cl)c1 (stereo partly drawn) [Compound 21] |  |  |  | 
0.32 ± 0.04 | 7.7 ± 0.9 | C=C[C@@H]1C2CCCC(C(=O)N3[C@H](C(=O)NC)CC[C@@H]13)N2S(=O)(=O)c1cc(Cl)cc(Cl)c1 (stereo partly drawn) [Compound 22] |  |  |  | 
0.067 ± 0.01 | 0.93 ± 0.2 | C=C[C@@H]1C2CCCC(C(=O)N3[C@H](C(=O)N4CCC(C)CC4)CC[C@@H]13)N2S(=O)(=O)c1cc(Cl)cc(Cl)c1 (stereo partly drawn) [Compound 25] |  |  |  | 
0.55 ± 0.07 | 17 ± 1.7 | C=C[C@@H]1C2CCCC(C(=O)N3[C@H](C(=O)N4C[C@@H]5C[C@H]4CN5C)CC[C@@H]13)N2S(=O)(=O)c1cc(Cl)cc(Cl)c1 [Compound 27] |  |  |  | 
0.72 ± 0.1 | 52 ± 6 | C=C[C@@H]1C2CCCC(C(=O)N3[C@H](C(=O)N4C[C@@H]5C[C@H]4CN5)CC[C@@H]13)N2S(=O)(=O)c1cc(Cl)cc(Cl)c1 [Compound 28] |  |  |  | 
